Reference: patent publication EP1780283A1, “Trophic conversion of obligate photographic algae through metabolic engineering” (MARTEK BIOSCIENCES CORPORATION, priority 2000, dated 2001)
Like-named read-outs stand apart in the source and are kept apart here.

Tests used:
[1] = system: Cylindrotheca fusiformis; assay: Antibiotic sensitivity of diatoms on solid media; type: cell-based; conditions: for lowest concentration of antibiotic per ml required for cell death or the lowest concentration tested: reduced salinity
Protocol: (§1) The diatoms Phaeodactylum tricornutum, Cylindrotheca fusiformis, Cyclotella cryptica and Nitzschia alba were extensively tested for sensitivity to a series of antibiotics for which resistance genes are available, and the lowest concentrations which completely abrogate growth were determined for each antibiotic (Table C). […] These include antibiotics such as G418, Hygromycin, Kanamycin and Spectinomycin, which are routinely utilized for selection of other eukaryotic organisms.
(§2) The effective concentration range of the antibiotic in most cases was lowered by a factor of 10.
(§3) Cells of each diatom species were plated on solid media at salinity equivalents of 25-100% I.O. media, with a gradient of antibiotic concentrations. After 2 weeks of illumination the growth of the cells was assessed and the concentration of antibiotic required for cell death was determined. (Table D). Table C. Effect of antibiotics on the growth of selected diatoms. Values represent the lowest concentration of the antibiotic per ml required for cell death or the highest concentration tested.
(§4) Table D. Effect of antibiotics on the growth of selected diatoms in media with reduced salinity. The relative percentage of salinity verses normal seawater of the medium is given in parentheses. Antibiotic levels are given as the lowest concentration of antibiotic per ml required for cell death or the lowest concentration tested.

[2] = system: Phaeodactylum tricornutum; assay: Antibiotic sensitivity of diatoms on solid media; type: cell-based; conditions: for lowest concentration of antibiotic per ml required for cell death or the lowest concentration tested: reduced salinity
Protocol: as §1, §2, §3, §4

[3] = system: Cyclotella cryptica; assay: Antibiotic sensitivity of diatoms on solid media; type: cell-based; conditions: for lowest concentration of antibiotic per ml required for cell death or the lowest concentration tested: reduced salinity, 10% of normal seawater
Protocol: as §1, §2, §3, §4

[4] = system: Nitzschia alba; assay: Antibiotic sensitivity of diatoms on solid media; type: cell-based
Protocol: as §1, §3

[5] = system: human Glut1 glucose transporter (Glut1, from human erythrocytes), expressed in P. tricornutum transformants Glut-13 and Glut-17; assay: Glucose uptake kinetics (D-14C-glucose) of glut1 containing P. tricornutum transformants; type: cell-based, Phaeodactylum tricornutum; conditions: cell line Glut-13; 5x10^-4 of Cytochalasin B (unit not given)
[6] = C. fusiformis, solid media, 100% I.O. media, 2 weeks of illumination
[7] = P. tricornutum, solid media, 100% I.O. media, 2 weeks of illumination
[8] = C. cryptica, solid media, 100% I.O. media, 2 weeks of illumination
[9] = N. alba, solid media, 100% I.O. media, 2 weeks of illumination
[10] = C. fusiformis, 25% of normal seawater
[11] = C. fusiformis, 50% of normal seawater
[12] = P. tricornutum, 50% of normal seawater
[13] = P. tricornutum, 25% of normal seawater

Row | Compound | lowest concentration of the antibiotic per ml required for cell death or the highest concentration tested [1] | lowest concentration of the antibiotic per ml required for cell death or the highest concentration tested [2] | lowest concentration of the antibiotic per ml required for cell death or the highest concentration tested [3] | lowest concentration of the antibiotic per ml required for cell death or the highest concentration tested [4] | lowest concentration of the antibiotic per ml required for cell death or the highest concentration tested [1, 6] | lowest concentration of the antibiotic per ml required for cell death or the highest concentration tested [2, 7] | lowest concentration of the antibiotic per ml required for cell death or the highest concentration tested [3, 8] | lowest concentration of the antibiotic per ml required for cell death or the highest concentration tested [4, 9] | lowest concentration of antibiotic per ml required for cell death or the lowest concentration tested [1, 10] | lowest concentration of antibiotic per ml required for cell death or the lowest concentration tested [1, 11] | lowest concentration of antibiotic per ml required for cell death or the lowest concentration tested [2, 12] | lowest concentration of antibiotic per ml required for cell death or the lowest concentration tested ([3]; C. cryptica) | lowest concentration of antibiotic per ml required for cell death or the lowest concentration tested [2, 13] | glucose uptake in the presence of Cytochalasin B [5]
1 | CN[C@@H]1C[C@H](N)[C@@H](O)[C@H](O[C@H]2O[C@H](CO)[C@H](O)[C@@H]3O[C@@]4(O[C@@H]23)O[C@H]([C@H](N)CO)[C@H](O)[C@H](O)[C@H]4O)[C@H]1O [Hygromycin] | 500 mg | > 1 mg | > 500 mg | > 500 mg |  |  |  |  |  |  |  |  |  | 
2 | Neomycin |  |  |  |  | > 1 mg mg per ml | > 1 mg mg per ml | > 1 mg mg per ml | > 1 mg mg per ml |  |  |  |  |  | 
3 | Cc1c(N)nc([C@H](CC(N)=O)NC[C@H](N)C(N)=O)nc1C(=O)N[C@H](C(=O)N[C@H](C)[C@@H](O)[C@H](C)C(=O)N[C@H](C(=O)NCCC1=N[C@@H](c2nc(C(=O)NCCCCN=C(N)N)cs2)CS1)[C@@H](C)O)[C@@H](O[C@@H]1O[C@@H](CO)[C@@H](O)[C@H](O)[C@@H]1O[C@H]1O[C@H](CO)[C@@H](O)[C@H](OC(N)=O)[C@@H]1O)c1cnc[nH]1 [Zeocin] |  |  |  |  | > 250 mg mg per ml | 50 mg mg per ml | 250 mg mg per ml | > 250 mg mg per ml | 100 mg (25%) mg per ml | 250 mg (50%) mg per ml | 25 mg (50%) mg per ml | < 5 mg (10%) mg per ml |  | 
4 | Nourseothricin |  |  |  |  | > 250 mg mg per ml | 250 mg mg per ml | >250 mg mg per ml | > 250 mg mg per ml | < 10 mg (25%) mg per ml | 50 mg (50%) mg per ml | 25 mg (50%) mg per ml | < 5 mg (10%) mg per ml | 10 mg (25%) mg per ml | 
5 | Bleomycin |  |  |  |  | > 50 mg mg per ml | > 50 mg mg per ml |  |  |  |  |  |  |  | 
6 | CN[C@@H]1[C@@H](O)[C@@H](O[C@@H]2[C@@H](O)[C@H](O[C@H]3O[C@H]([C@@H](C)O)[C@@H](O)[C@H](O)[C@H]3N)[C@@H](N)C[C@H]2N)OC[C@]1(C)O [G418] |  |  |  |  | > 1 mg mg per ml | > 1 mg mg per ml | 250 mg mg per ml | > 500 mg mg per ml |  |  |  |  |  | 
7 | Phleomycin |  |  |  |  | 25 mg mg per ml | 5 mg mg per ml | 25 mg mg per ml | > 50 mg mg per ml | < 5 mg (25%) mg per ml | 25 mg (50%) mg per ml | < 5 mg (50%) mg per ml | < 5 mg (10%) mg per ml | < 5 mg (25%) mg per ml | 
8 | C=C1C(C)C2C(Cc3ccccc3)NC(=O)C23OC(=O)C=CC(O)CCCC(C)CC=CC3C1O (centres unmarked) [Cytochalasin B] |  |  |  |  |  |  |  |  |  |  |  |  |  | reduced to an undetectable level
